One experiment deals with CT26 and MC38 cells. Kind of experiment: Extracellular ATP release after oxaliplatin, murine colon carcinoma lines. It is filed as cell-based. The note with it: 250 μM oxaliplatin, 8 hours. On the procedure: (§1) To evaluate cellular ATP release following oxaliplatin treatment, murine colon carcinoma cell lines CT26 and MC38 and human melanoma cell line SK-MEL-5 were defrosted, rinsed, and resuspended in their respective culture media. Culture media for CT26 and MC38 is RPMI+10% FBS+1% glutamax+1% penicillin-streptomycin+1% sodium pyruvate. Culture media for SK-MEL-5 is EMEM+10% FBS+1% glutamax+1% penicillin-streptomycin+1% sodium pyruvate. Cells were plated at 2.5×10^4 cells per well in a 96-well plate and incubated overnight at 37° C., 5% CO2. The following day, the cells were treated with the vehicle (PBS), 100 μM or 250 μM oxaliplatin. […] To determine cellular viability, the cells were incubated with treatments for 24 hours at 37° C., 5% CO2. At the end of the incubation period, viability was determined using luminescence-based Cell Titer Glo 2.0 assay (Promega, Cat. No. G9242). Data are presented as viability normalized to untreated vehicle controls (FIG. 19A). To determine HMGB1 release, the cells were incubated with treatment for 24 hours at 37° C., 5% CO2. At the end of the incubation period, the plates were centrifuged at 400×g for 5 minutes and supernatants were collected. HMGB1 levels in the culture supernatants were then determined using Lumit HMGB1 Kit (Promega, Cat. No. CS3030B01) following manufacturer's instructions (FIG. 19B). […]

A further experiment deals with SK-MEL-5 cells. The experiment in a line: Extracellular ATP release after oxaliplatin, SK-MEL-5 cells. It is filed as cell-based, human. The note with it: 250 μM oxaliplatin, 8 hours. On the procedure: as §1

For `O=C1[O][Pt]2([NH][C@@H]3CCCC[C@H]3[NH]2)[O]C1=O` [oxaliplatin, reference compound], the “Extracellular ATP release” value in the experiment with CT26 and MC38 cells was “demonstrated ATP release”; with SK-MEL-5 cells it was “demonstrated ATP release”.
